Read-outs that look alike come from different tables or passages of the source. Non-standard residues stand in square brackets, D forms with d. Residues, ends and D or L forms follow the SMILES beside them. *: point of attachment. pS = N[C@@H](COP(=O)(O)O)C(=O)O; Acm = CC(=O)NC*; Cam = NC(=O)C*
Biological target: T1, interactions between Talin 1 (TLN1) and integrin subunit beta (ITGB) (Homo sapiens, UniProt Q9Y490)
T1 construct: LgBit or SmBit (N-terminal of the HaloTag); made in house
Assay: Flip-flop detection mechanism on DNA origami (LgBit/SmBit luminescence), inhibitor screening
Format: biochemical
Details: inhibition of binding between TLN1 and ITBG; for IC50: read-out: Inhibitory activity
Text: Two types of systems, i.e., flip-flop detection mechanism and switch detection mechanism, were constructed by using HaloTag, LgBit, SmBit, TLN1, and ITGB. Each of TLN1 (Uniprot ID: Q9Y490) and ITGB1 (Uniprot ID: P05556) was cloned from the registered genetic information. HaloTAg has three chemically modifiable locations at a ligand recognition site, C-terminus, and N-terminus. In this Example, a single-stranded DNA for attaching to DNA origami was connected to a ligand recognition site of HaloTag, a subunit of an interaction complex was connected to the C-terminus, and LgBit or SmBit was connected to the N-terminus.
The outline of the system is disclosed in Figure 23. When TLN1 and ITBG are in a bound state in this system, LgBit and SmBit are at spatially separated positions from each other, with a HaloTag interposed therebetween. In this regard, if an inhibitor is added, complex formation of TLN1 and ITBG is inhibited. As a result, a LgBit-SmBit complex can be formed, and a luminescence reaction progresses.
As a candidate drug for inhibiting the binding between TLN1 and ITBG, peptide inhibitors consisting of 13 amino acids prepared by modifying amino acids in an intracellular region of ITGB3 have been designed (Shen B. et al., A directional switch of integrin signaling and a new antithrombotic strategy. Nature 503, 131-135 (2013)). IC50 values for the peptides shown in the following table were calculated by using the flip-flop detection mechanism described in Example 11 for optimizing the sequence. In this manner, the effect of a large number of compounds on the interaction with a target protein can be readily analyzed in the system of the present disclosed.

Compound | Inhibitory activity | other results
CC[C@H](C)[C@H](NC(=O)[C@@H]1CCCN1C(=O)[C@H](CC(N)=O)NC(=O)[C@H](CCC(=O)O)NC(=O)[C@H](CCC(N)=O)NC(=O)[C@@H](NC(=O)[C@@H](NC(=O)[C@H](CCCNC(=N)N)NC(=O)[C@H](Cc1c[nH]c2ccccc12)NC(=O)[C@H](CCCCN)NC(=O)[C@H](CS)NC(=O)[C@H](CC(N)=O)NC(=O)[C@H](CCSC)NC(=O)[C@H](CCCCN)NC(=O)[C@H](CCC(=O)O)NC(=O)[C@H](CCCCN)NC(=O)[C@H](CCC(=O)O)NC(=O)[C@H](Cc1ccccc1)NC(=O)[C@@H](N)CCCCN)C(C)C)[C@@H](C)O)C(=O)N[C@@H](Cc1ccc(O)cc1)C(=O)N[C@@H](CCCCN)C(=O)O [FIYM56] (H-KFEKEKMNCKWRVTQENPIYK-OH) | no inhibition | –
CSCC[C@H](NC(=O)[C@H](CCCNC(=N)N)NC(=O)[C@H](CCC(=O)O)NC(=O)[C@@H](N)Cc1ccccc1)C(=O)N[C@@H](CC(N)=O)C(=O)N[C@@H](CS)C(=O)N[C@@H](CCCCN)C(=O)N[C@@H](Cc1c[nH]c2ccccc12)C(=O)N[C@@H](CCSC)C(=O)N[C@H](C(=O)O)[C@@H](C)O [FIYM25] (H-FERMNCKWMT-OH) | no inhibition | –
CSCC[C@H](NC(=O)[C@H](CCCCN)NC(=O)[C@H](CCC(=O)O)NC(=O)[C@H](CCCCN)NC(=O)[C@H](CCC(=O)O)NC(=O)[C@H](Cc1ccccc1)NC(=O)[C@H](CCCCN)NC(=O)[C@@H]1CCCN1C(=O)CN)C(=O)N[C@@H](CC(N)=O)C(=O)N[C@@H](CS)C(=O)N[C@@H](CCCCN)C(=O)N[C@@H](Cc1c[nH]c2ccccc12)C(=O)N[C@@H](CCSC)C(=O)N[C@H](C(=O)O)[C@@H](C)O [FIYM55] (H-GPKFEKEKMNCKWMT-OH) | no inhibition | –
CSCC[C@H](NC(=O)[C@H](Cc1c[nH]c2ccccc12)NC(=O)[C@H](CCCCN)NC(=O)[C@H](CS)NC(=O)[C@H](CC(N)=O)NC(=O)[C@H](CCSC)NC(=O)[C@H](CCCCN)NC(=O)[C@H](CCC(=O)O)NC(=O)[C@H](CCCCN)NC(=O)[C@H](CCC(=O)O)NC(=O)[C@@H](N)Cc1ccccc1)C(=O)O [FIYM24] (H-FEKEKMNCKWM-OH) | no inhibition | –
CSCC[C@H](NC(=O)[C@H](CCCCN)NC(=O)[C@H](CCC(=O)O)NC(=O)[C@H](CCCCN)NC(=O)[C@H](CCC(=O)O)NC(=O)[C@H](Cc1ccccc1)NC(=O)[C@H](CCCCN)NC(=O)[C@@H]1CCCN1C(C)=O)C(=O)N[C@@H](CC(N)=O)C(=O)N[C@@H](CS)C(=O)N[C@@H](CCCCN)C(=O)N[C@@H](Cc1c[nH]c2ccccc12)C(=O)N[C@@H](CCSC)C(=O)N[C@H](C(=O)O)[C@@H](C)O [FIYM17] (Ac-PKFEKEKMNCKWMT-OH) | – | IC50: 144 µM
CSCC[C@H](NC(=O)[C@H](CCCCN)NC(=O)[C@H](CCC(=O)O)NC(=O)[C@H](CCCCN)NC(=O)[C@H](CCC(=O)O)NC(=O)[C@H](Cc1ccccc1)NC(=O)[C@H](CCCCN)NC(=O)[C@@H](N)CCSC)C(=O)N[C@@H](CC(N)=O)C(=O)N[C@@H](CS)C(=O)N[C@@H](CCCCN)C(=O)N[C@@H](Cc1c[nH]c2ccccc12)C(=O)N[C@@H](CCSC)C(=O)N[C@H](C(=O)O)[C@@H](C)O [FIYM48] (H-MKFEKEKMNCKWMT-OH) | – | IC50 (µM): 292 µM
CSCC[C@H](NC(=O)[C@H](CCCCN)NC(=O)[C@H](CCC(=O)O)NC(=O)[C@H](CCCCN)NC(=O)[C@H](CCC(=O)O)NC(=O)[C@H](Cc1ccccc1)NC(=O)[C@@H](N)CCCCN)C(=O)N[C@@H](CC(N)=O)C(=O)N[C@@H](CSCC(N)=O)C(=O)N[C@@H](CCCCN)C(=O)N[C@@H](Cc1c[nH]c2ccccc12)C(=O)N[C@@H](CCSC)C(=O)N[C@H](C(=O)O)[C@@H](C)O [FIYM39] (H-KFEKEKMNC(Cam)KWMT-OH) | – | IC50: 131 µM
CSCC[C@H](NC(=O)[C@H](CCCCN)NC(=O)[C@H](CCC(=O)O)NC(=O)[C@H](CCCCN)NC(=O)[C@H](CCC(=O)O)NC(=O)[C@H](Cc1ccccc1)NC(=O)[C@@H](N)CCCCN)C(=O)N[C@@H](CC(N)=O)C(=O)N[C@@H](C)C(=O)N[C@@H](CCCCN)C(=O)N[C@@H](Cc1c[nH]c2ccccc12)C(=O)N[C@@H](CCSC)C(=O)N[C@H](C(=O)O)[C@@H](C)O [FIYM9] (H-KFEKEKMNAKWMT-OH) | no inhibition | –
CSCC[C@H](NC(=O)[C@H](CCCNC(=N)N)NC(=O)[C@H](CCC(=O)O)NC(=O)[C@H](Cc1ccccc1)NC(=O)[C@@H](N)CCCCN)C(=O)N[C@@H](CC(N)=O)C(=O)N[C@@H](CS)C(=O)N[C@@H](CCCCN)C(=O)N[C@@H](Cc1c[nH]c2ccccc12)C(=O)N[C@@H](CCSC)C(=O)N[C@H](C(=O)O)[C@@H](C)O [FIYM20] (H-KFERMNCKWMT-OH) | no inhibition | –
CSCC[C@H](NC(=O)[C@H](Cc1c[nH]c2ccccc12)NC(=O)[C@H](CCCCN)NC(=O)[C@H](CS)NC(=O)[C@H](CC(N)=O)NC(=O)[C@H](CCSC)NC(=O)[C@H](CCCCN)NC(=O)[C@H](CCC(=O)O)NC(=O)[C@H](CCCCN)NC(=O)[C@H](CCC(=O)O)NC(=O)[C@H](Cc1ccccc1)NC(=O)[C@@H](N)CCCCN)C(=O)N[C@@H](COP(=O)(O)O)C(=O)O [FIYM14] (H-KFEKEKMNCKWM[pS]-OH) | no inhibition | –
CC[C@H](C)[C@H](NC(=O)[C@@H]1CCCN1C(=O)[C@H](CC(N)=O)NC(=O)[C@H](CCC(=O)O)NC(=O)CNC(=O)[C@@H](NC(=O)[C@H](CC(=O)O)NC(=O)[C@H](Cc1c[nH]c2ccccc12)NC(=O)[C@H](CCCCN)NC(=O)[C@H](C)NC(=O)[C@H](CC(N)=O)NC(=O)[C@H](CCSC)NC(=O)[C@H](CCCCN)NC(=O)[C@H](CCC(=O)O)NC(=O)[C@H](CCCCN)NC(=O)[C@H](CCC(=O)O)NC(=O)[C@H](Cc1ccccc1)NC(=O)[C@@H](N)CCCCN)[C@@H](C)O)C(=O)N[C@@H](Cc1ccc(O)cc1)C(=O)N[C@@H](CCCCN)C(=O)O [FIYM6] (H-KFEKEKMNAKWDTGENPIYK-OH) | no inhibition | –
CSCC[C@H](NC(=O)[C@H](CCCCN)NC(=O)[C@H](CCC(=O)O)NC(=O)[C@H](CCCNC(=N)N)NC(=O)[C@H](CCC(=O)O)NC(=O)[C@H](Cc1ccccc1)NC(=O)[C@@H](N)CCCNC(=N)N)C(=O)N[C@@H](CC(N)=O)C(=O)N[C@@H](CS)C(=O)N[C@@H](CCCNC(=N)N)C(=O)N[C@@H](Cc1c[nH]c2ccccc12)C(=O)N[C@@H](CCSC)C(=O)N[C@H](C(=O)O)[C@@H](C)O [FIYM16] (H-RFEREKMNCRWMT-OH) | no inhibition | –
KF(-Me)EKEKMNCKWMT (KFEKEKMNCKWMT) [FIYM19] | – | IC50: 212 µM
CSCC[C@H](NC(=O)[C@H](CCCCN)NC(=O)[C@H](CCC(=O)O)NC(=O)[C@H](CCCCN)NC(=O)[C@H](CCC(=O)O)NC(=O)[C@H](Cc1ccccc1)NC(=O)[C@@H](N)CCCCN)C(=O)N[C@@H](CC(N)=O)C(=O)N[C@@H](CSCNC(C)=O)C(=O)N[C@@H](CCCCN)C(=O)N[C@@H](Cc1c[nH]c2ccccc12)C(=O)N[C@@H](CCSC)C(=O)N[C@H](C(=O)O)[C@@H](C)O [FIYM38] (H-KFEKEKMNC(Acm)KWMT-OH) | no inhibition | –
CSCC[C@H](NC(=O)[C@H](CCCCN)NC(=O)[C@H](CCC(=O)O)NC(=O)[C@H](CCCNC(=N)N)NC(=O)[C@H](CCC(=O)O)NC(=O)[C@H](Cc1ccccc1)NC(=O)[C@@H](N)CCCCN)C(=O)N[C@@H](CC(N)=O)C(=O)N[C@@H](CS)C(=O)N[C@@H](CCCCN)C(=O)N[C@@H](Cc1c[nH]c2ccccc12)C(=O)N[C@@H](CCSC)C(=O)N[C@H](C(=O)O)[C@@H](C)O [FIYM27] (H-KFEREKMNCKWMT-OH) | – | IC50: 94.7 µM
CSCC[C@H](NC(=O)[C@H](CCCCN)NC(=O)[C@H](CCC(=O)O)NC(=O)[C@H](CCCCN)NC(=O)[C@H](CCC(=O)O)NC(=O)[C@H](Cc1ccccc1)NC(=O)[C@@H](N)CCCCN)C(=O)N[C@@H](CC(N)=O)C(=O)N[C@@H](COP(=O)(O)O)C(=O)N[C@@H](CCCCN)C(=O)N[C@@H](Cc1c[nH]c2ccccc12)C(=O)N[C@@H](CCSC)C(=O)N[C@H](C(=O)O)[C@@H](C)O [FIYM36] (H-KFEKEKMN[pS]KWMT-OH) | no inhibition | –
CSCC[C@H](NC(=O)[C@H](CCCCN)NC(=O)[C@H](CCC(=O)O)NC(=O)[C@H](CCCCN)NC(=O)[C@H](CCC(=O)O)NC(=O)[C@H](Cc1ccccc1)NC(=O)[C@@H](N)CCCCN)C(=O)N[C@@H](CC(N)=O)C(=O)N[C@@H](CS)C(=O)N[C@@H](CCCCN)C(=O)N[C@@H](Cc1c[nH]c2ccccc12)C(=O)N[C@@H](CCSC)C(=O)N[C@H](C(=O)O)[C@@H](C)O [FIYM10] (H-KFEKEKMNCKWMT-OH) | – | IC50: 5.7 µM
CSCC[C@H](NC(=O)[C@H](CCCCN)NC(=O)[C@H](CCC(=O)O)NC(=O)[C@H](CCCCN)NC(=O)[C@H](CCC(=O)O)NC(=O)[C@H](Cc1ccccc1)NC(=O)[C@@H](N)CCCCN)C(=O)N[C@@H](CCSC)C(=O)N[C@@H](CS)C(=O)N[C@@H](CCCCN)C(=O)N[C@@H](Cc1c[nH]c2ccccc12)C(=O)N[C@@H](CCSC)C(=O)N[C@H](C(=O)O)[C@@H](C)O [FIYM29] (H-KFEKEKMMCKWMT-OH) | no inhibition | –
